Measured values published in patent publication US7307166B1, “Oxpurine nucleosides and their congeners, and acyl, derivatives thereof, for improvement of hematopoiesis” (Wellstat Therapeutics Corporation, priority 1987, dated 2007).

Columns and labels:
Assay type in all cases: in vivo, mouse
Balb/C female mice = assay: Hematopoietic recovery after cyclophosphamide in mice (spleen weight, blood cell counts)
female Balb/C mice [1] = assay: Cecal ligation and puncture (CLP) polymicrobial sepsis survival; details: 25 mg/kg i.p. daily 3 days prior to CLP
Description: N^2,3′,5′-tripalmitoyldeoxyguanosine (PdG) stimulates neutrophil production. Since neutrophils are important in defense against bacteria, PdG was tested for beneficial effects in bacterial sepsis. Bacterial infection as a consequence of the immunocompromising effects of radiotherapy or chemotherapy is an important cause of mortality in cancer patients. The potential utility of PdG was evaluated in the cecal ligation and puncture model (CLP), a model of polymicrobial sepsis in which the cecum of an animal is tied off without otherwise obstructing intestinal flow, and then punctured to allow fecal matter trapped in the cecum to leak into the peritoneal cavity (O'Reilly, et al. Journal of Trauma, 33:679-682). This release causes peritonitis as well as subsequent bacteremia, shock, and mortality. The CLP model is a particularly rigorous challenge because it creates a severe and complex polymicrobial sepsis due to both Gram-negative and Gram-positive bacteria. The CLP model is analogous to a ruptured appendix or punctured intestine in humans.
36 female Balb/C mice were employed. The mice were randomly assigned to one of three groups of twelve mice each. Two groups were treated once per day for three days prior to CLP by i.p. injection with either 25 mg/kg PdG or with vehicle alone. One group underwent the CLP procedure but received no other treatment. Survival was monitored for 60 days after CLP.

female Balb/C mice [2] = assay: Survival after bacterial endotoxin (salmonella typhimurium LPS); details: 21-day observation; LPS 100 μg (5 mg/kg); 25 mg/kg i.p. daily 3 days prior
Description: In an experiment to test the effect of N^2,3′,5′-tripalmitoyldeoxyguanosine (PdG) on animals challenged by endotoxin, 42 female Balb/C mice were divided into three groups of 14 animals each. Each group was given a single 100 μg dose (5 mg/kg) of salmonella typhimurium LPS. Two of the groups were treated once per day for three days prior to receiving the LPS by intraperitoneal injection with either 25 mg/kg PdG or with vehicle alone. The third group received no pretreatment. Survival of the animals was monitored for 21 days subsequent to the LPS dose.

hematopoietic stem cells = assay: Stem cell mobilization

Row | SMILES | spleen weight (Balb/C female mice; Ex 38: day 7 after CP, guanosine 5, acyl derivatives 2.5 μmoles/mouse/day in 0.2% Tween 80 i.p. 6 days, Tween 80 0.2%) | total neutrophils (Balb/C female mice; Ex 41: day 7 after CP, treatment on only days 1 and 2, vs saline or Tween 80) | platelet number (Balb/C female mice; Ex 47: day 10 after CP, 2.5 μmoles/mouse/day) | mice alive (female Balb/C mice [1]; 72 hours after CLP) | animals surviving / total (female Balb/C mice [1]; 60 day observation period) | survival (female Balb/C mice [1]; 60 day observation period) [%] | survival (female Balb/C mice [2]) | mobilization of stem cells (hematopoietic stem cells; PdG alone 25 mg/kg) | response to cyclophosphamide (stem cell mobilization) with PdG (hematopoietic stem cells; PdG with cyclophosphamide) | mobilizing stem cells in intact and splenectomized mice (hematopoietic stem cells; with and without cyclophosphamide co-treatment)
1 | CCCCCCCCCCCCCCCC(=O)OC[C@H]1O[C@@H](n2cnc3c(=O)[nH]c(N)nc32)[C@H](O)[C@@H]1O | significantly larger spleens | significant increase | significantly greater |  |  |  |  |  |  | 
2 | CCCCCCCCCCCCCCCC(=O)Nc1nc2c(ncn2[C@H]2C[C@H](OC(=O)CCCCCCCCCCCCCCC)[C@@H](COC(=O)CCCCCCCCCCCCCCC)O2)c(=O)[nH]1 [PdG, 3′,5′-O-N^2-tripalmitoyl-2′-deoxyguanosine] |  |  |  | All | 10/12 | 83 | All | can induce the mobilization | seven to eight-fold greater | equally effective
